Test results: patent US11318190B2, “Methods and compositions for treating liver disease” (UNITED STATES GOVERNMENT AS REPRESENTED BY THE DEPARTMENT …, priority 2017, dated 2022)
pKi: −log10 of the molar value.

Tests used:
large IMCLs = test: Large IMCLs treated with secretin with/without LY2109761, or with TGF-β1 (Example 2); format: cell-based, mouse
Text: Cholangiocytes were obtained by immunoaffinity separation as described herein above, using a monoclonal antibody (a gift from Dr. R. Faris, Brown University, Providence, R.I.) that is expressed by all intrahepatic cholangiocytes. HSCs from the selected groups of mice were isolated by LCM as described previously in Wu, N et al., The secretin/secretin receptor axis modulates liver fibrosis through changes in transforming growth factor-beta1 biliary secretion in mice, Hepatology (Baltimore, Md.) 64(3):865-879 (2016). Briefly, frozen liver sections (n=3, 10 μm thick) were incubated overnight with an anti-desmin (a marker of stellate cells) antibody. Then, desmin-positive cells were dissected from the slides using a LCM system Leica LMD7000 (Buffalo Grove, Ill.) and were collected before RNA extraction with the Arcturus PicoPure RNA isolation kit (Thermo Fisher Scientific CO, Mountain View, Calif.). The in vitro studies were performed in: (I) immortalized murine cholangiocyte lines derived from large cholangiocytes lining large ducts (IMCLs); and (ii) human hepatic stellate cell lines (HHSteCs; ScienCell Research Laboratories, Carlsbad, Calif.).
WT mice were treated for 1 wk with saline or secretin (Sct; 2.5 nmoles/kg body weight per day) before collecting cholangiocytes, HSCs and cholangiocyte supernatants. The levels of TGF-β1 were measured in short-term (6-hour) cultures of cholangiocytes by ELISA kits. Subsequently, we measured: (i) liver fibrosis by immunofluorescence for Col1a1 in liver sections and real-time PCR for TGF-β1, TFG-β1R, Col1a1, α-SMA and Fn1 in cholangiocytes and HSCs; and (ii) cellular senescence by immunofluorescence in liver sections for p16 and real-time PCR for p16 and p21 in cholangiocytes and HSC.
(§1) Biliary supernatants were obtained from normal and BDL WT mice and Sct^−/−, SR^−/− and Sct^−/−/SR^−/− BDL mice as well as normal WT mice treated with saline or secretin. HHSteCs were incubated with the aforementioned biliary supernatants (containing different levels of TGF-β1) for 24 hr (in the absence or presence of LY2109761) before measuring the expression of senescence and fibrosis genes by real-time PCR. Furthermore, HHSteCs were incubated with the supernatant of large IMCLs treated for 0.2% bovine serum albumin (basal) or secretin (10 nM) with/without LY2109761 for 6 hr before measuring the mRNA expression of fibrosis and senescence genes. To provide direct evidence that TGF-β1 directly modulates fibrosis and senescence of IMCLs and HHSteCs, these cells were stimulated with TGF-β1 (10 nM) for 24 hr before measuring the expression of PCNA as well as fibrosis and senescence genes by real-time PCR.

TGF-β receptor type II = TGF-β receptor type II (Homo sapiens, UniProt P37173); conditions: cited from earlier work
HHSteCs [1] = test: HHSteCs treated with cholangiocyte supernatants with/without LY2109761, TGF-β1 or r-VEGFA (Example 4); format: cell-based, human; conditions: 12 hr
Method: (§2) Cholangiocytes were obtained by immunoaffinity separation, Cholangiocytes were obtained by immunoaffinity separation as described herein above, using a monoclonal antibody (a gift from Dr. R. Faris, Brown University, Providence, R.I.) that is expressed by all intrahepatic cholangiocytes. Cell viability (greater than 97%) was assessed by trypan blue exclusion. HSCs were isolated by LCM as described herein above. Frozen liver sections (n=3, 10 μm thick) were incubated overnight with an antibody against desmin (marker of stellate cells). Following staining, desmin-positive HSCs were dissected from the slides by a LCM system Leica LMD7000 (Buffalo Grove, Ill.) and collected into a PCR tube before being analyzed. The RNA from HSCs was extracted with the Arcturus PicoPure RNA isolation kit (Thermo Fisher Scientific CO, Mountain View, Calif.). The in vitro studies were performed in our immortalized murine biliary cell lines (IMCLs) and human hepatic stellate cell lines (HHSteCs, Sciencell, Carlsbad, USA).
In biliary supernatants, the levels of TGF-β1 were measured by ELISA kits. HHSteCs were incubated with cholangiocyte supernatants from the selected groups of animals for 12 hr (in the absence or presence of LY2109761, 10 μM, a TGF-β1 receptor antagonist, Cayman Chemical, Ann Arbor, Mich.) before measuring the expression of VEGF-A and senescent and fibrosis genes by qPCR. To determine that Sct increases TGF-β1 levels by a microRNA 125b-dependent mechanism, IMCLs were treated with Sct (10 nM in the absence/presence of a microRNA 125b mimic precursor, 5 μM) for 12 hr before measuring TGF-β1 mRNA expression (by qPCR) and secretion by ELISA kits. To provide conclusive evidence that TGF-β1 directly modulates the function IMCLs and HHSteCs, these cells were stimulated with TGF-β1 (10 nM) for 12 hr before measuring the expression of VEGF-A and senescent and fibrosis genes by qPCR. […] We also evaluated by immunofluorescence the expression of VEGFR-2 in cell smears of IMCLs and HHSteCs. […]

HHSteCs [2] = test: HHSteCs incubated with biliary/IMCL supernatants with/without LY2109761, or with TGF-β1 (Example 2); format: cell-based, human
Method: as §1

IMCLs = IMCLs treated with Sct with/without microRNA 125b mimic precursor, TGF-β1 or r-VEGFA (Example 4); format: cell-based, mouse; conditions: TGF-β1 10 nM or r-VEGFA 100 nM, 12 hr
Method: as §2
In biliary supernatants, the levels of TGF-β1 were measured by ELISA kits. […] We also evaluated by immunofluorescence the expression of VEGFR-2 in cell smears of IMCLs and HHSteCs. […]

[3] = system: human hepatic stellate cells (hHSC); test: hHSC activation by cholangiocyte supernatants from treated mice (qPCR); format: cell-based
Method: In vitro experiments were performed in human hepatic stellate cells (hHSC) that were purchased from ScienCell Research Laboratories (Carlsbad, Calif.) that were maintained in standard conditions.
[…] Activation of hHSCs was determined by qPCR for FN-1, TGF-β1, α-SMA, and collagen type-1a (Kennedy, L L et al., Knockout of microRNA-21 reduces biliary hyperplasia and liver fibrosis in cholestatic bile duct ligated mice, Lab Invest 96:1256-1267 (2016)).

dnTGF-βRII mice [4] = test: dnTGF-βRII mice 12 wk (early stage PBC model) treated 1 wk by osmotic minipump; format: in vivo, mouse; conditions: dnTGF-βRII 12 wk; for intrahepatic bile duct mass (IBDM, CK-19): 1 wk minipump
Method: (§3) Briefly, we used wild-type (WT), dnTGFβRII 12 wk and dnTGFβRII 34 wk mice treated with control or SR antagonist (SCT 5-27) minipump (10 μg/kg/day) for 1 wk. Hepatic damage was shown by H&E. IBDM and cholangiocyte proliferation were measured by immunohistochemistry for CK-19 and Ki67, respectively. Biliary apoptosis was evaluated by TUNEL staining. Senescence was measured in cholangiocytes by immunofluorescence for CCL2 or p16 co-stained with CK-19 (to image bile ducts) and SA-β-Galactosidase activity. Hepatic fibrosis was assessed by qPCR for collagen-1a and α-SMA in total liver, and quantification of Sirius Red staining. Hepatic stellate cell (HSC) activation was evaluated by immunofluorescence (IF) for Syp-9. HSC senescence was evaluated by IF for CCL2 or p16 co-stained with desmin (to visualize HSCs). Secretin levels in serum and bile were measured by EIA. Bile and serum were obtained from human control, early PBC and advanced PBC patients, and secretin was evaluated by EIA.
(§4) All animal procedures were performed according to protocols approved by the Baylor Scott & White Health IACUC Committee. Transgenic mice expressing a dominant-negative form of the human transforming growth factor-beta receptor II (dnTGF-βRII) were obtained from Dr. M. Eric Gershwin at UC Davis Health (Sacramento, Calif.), and background-matched wild-type (WT, strain C57BL/6) mice were purchased from Charles River Laboratories (Wilmington, Mass.); the breeding colony is established in our animal facility. Animals were maintained in micro-isolator cages in a temperature-controlled environment with 12/12-hr light/dark cycles and fed ad libitum standard chow with free access to drinking water. Studies were performed in 12 wk-old WT mice, and 12 wk-old (mimic early stage PBC) and 32 wk-old (mimic late stage PBC) female and male dnTGF-βRII mice (25-30 gm) that were treated with either saline, secretin (Sct; 2.5 nmoles/kg body weight per day; Bachem, Torrance, Calif.) or the secretin receptor (SR) antagonist, Sec 5-27 (10 μg/kg body weight per day; Thermo Fisher Scientific, Waltham, Mass.) for 1 wk by intraperitoneally implanted osmotic minipump. Liver tissue samples and blocks (formalin-fixed, paraffin-embedded and OCT-embedded), serum, bile, cholangiocytes, and cholangiocyte supernatants (after incubation at 37° C. for 4 hr) were collected as described.
(§5) Hematoxylin and eosin (H&E) staining was performed in formalin-fixed, paraffin-embedded liver sections (4-5 μm, 3 samples from 3 different animals) to determine liver morphology. H&E stained liver sections were evaluated by a board-certified pathologist to assess the degree of lobular damage, hepatic necrosis and portal inflammation. At least 10 different portal areas were evaluated for each parameter. Liver sections were examined in a coded fashion by BX-51 light microscopy (Olympus, Tokyo, Japan) equipped with a camera (See, Mancinelli, R et al., Ischemia reperfusion of the hepatic artery induces the functional damage of large bile ducts by changes in the expression of angiogenic factors. Am J Physiol Gastrointest Liver Physiol 2015; 309:G865-873 (2015); Taffetani S et al., Prolactin stimulates the proliferation of normal female cholangiocytes by differential regulation of Ca2+-dependent PKC isoforms, BMC Physiol 7:6 (2007)).
(§6) Serum levels of alkaline phosphatase (ALP) and γ-glutamyltransferase (γGT) are commonly used to diagnose PBC (Heathcote, E J, Management of primary biliary cirrhosis. The American Association for the Study of Liver Diseases practice guidelines, Hepatology 31:1005-1013 (2000)); therefore, were measured serum levels of ALP and γGT in mouse serum samples using the Alkaline Phosphatase Assay Kit and γ-Glutamyltransferase Activity Colorimetric Assay Kit, respectively (Abcam; Cambridge, Mass.).
(§7) Early stage PBC is identified by cholangiocyte proliferation, whereas late stage PBC is characterized by ductopenia. […]

dnTGF-βRII mice [5] = test: dnTGF-βRII mice 32-34 wk (late stage PBC model) treated 1 wk by osmotic minipump; format: in vivo, mouse; conditions: for intrahepatic bile duct mass (IBDM, CK-19): 1 wk minipump
Method: as §3, §4, §5, §6, §7

Mdr2−/− mice = conditions: cited from earlier work
[6] = vs saline treated, listed as SR antagonist
[7] = dnTGF-βRII 32/34 wk, vs saline treated
[8] = dnTGF-βRII 32/34 wk, listed as SR antagonist

Chain of TGF-β receptor type II (P37173 23-567): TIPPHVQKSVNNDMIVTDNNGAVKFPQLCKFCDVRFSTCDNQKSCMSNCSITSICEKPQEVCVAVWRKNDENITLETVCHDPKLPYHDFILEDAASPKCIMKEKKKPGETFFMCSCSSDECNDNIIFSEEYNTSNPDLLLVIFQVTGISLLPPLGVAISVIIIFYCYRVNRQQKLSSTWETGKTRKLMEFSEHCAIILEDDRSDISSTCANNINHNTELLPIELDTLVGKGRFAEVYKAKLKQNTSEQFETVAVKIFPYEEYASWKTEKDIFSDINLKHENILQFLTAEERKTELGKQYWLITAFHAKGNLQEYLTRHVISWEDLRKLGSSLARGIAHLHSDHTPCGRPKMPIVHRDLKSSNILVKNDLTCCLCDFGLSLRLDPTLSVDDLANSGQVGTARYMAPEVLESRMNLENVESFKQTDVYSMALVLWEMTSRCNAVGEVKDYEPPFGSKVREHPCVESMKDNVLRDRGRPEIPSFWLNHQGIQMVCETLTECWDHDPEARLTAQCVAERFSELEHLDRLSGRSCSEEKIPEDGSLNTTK

## c1ccc(-c2nn3c(c2-c2ccnc4cc(OCCN5CCOCC5)ccc24)CCC3)nc1 [LY2109761]
Large IMCLs; LY2109761 10 nM
  effect of preincubation on secretin-induced TGF-β1 secretion and fibrosis/senescence genes of large IMCLs: prevented
TGF-β receptor type II
  pKi: 6.52
HHSteCs [1]; LY2109761 10 μM, cholangiocyte supernatants from Mdr2−/− mice
  effect of preincubation on VEGF-A, fibrosis and senescence gene changes in HHSteCs: reversed
HHSteCs [2]; before supernatant from secretin-treated WT mice
  effect of preincubation on fibrosis/senescence gene changes in HHSteCs: reversed
HHSteCs [2]; supernatant of secretin-treated large IMCLs
  effect of preincubation on fibrosis/senescence gene changes of HHSteCs: reversed

## TGF-β1: transforming growth factor-β1 used to stimulate IMCLs and HHSteCs (10 nM)
Large IMCLs; TGF-β1 10 nM, 24 hr
  PCNA mRNA expression of large IMCLs: decreased
  expression of fibrosis and senescence genes of large IMCLs: increased
IMCLs
  expression of VEGF-A, fibrosis and senescence genes in IMCLs: increased
HHSteCs [1]; TGF-β1 10 nM or r-VEGFA 100 nM
  expression of VEGF-A, fibrosis genes in HHSteCs: increased
  senescence genes in HHSteCs: decreased
HHSteCs [2]; direct TGF-β1 10 nM, 24 hr
  fibrosis gene expression in HHSteCs: stimulates
  senescence gene expression in HHSteCs: reduces

## 15-lysine-secretin-(5-27) [SCT 5-27]
[3]; cholangiocyte supernatants from treated dnTGF-βRII mice 12 wks
  expression of FN-1, TGF-β1, α-SMA and collagen type-1a in hHSCs: reduced
[3]; cholangiocyte supernatants from treated dnTGF-βRII mice 34 wks
  expression of FN-1, TGF-β1, α-SMA and collagen type-1a in hHSCs: enhanced
dnTGF-βRII mice [4]
  HSC activation (SYP-9 staining): reduced
  HSC senescence: increased
  biliary senescence (p16, p18, p21, CCL2): reduced
  cholangiocyte apoptosis (TUNEL-positive cholangiocytes): enhanced
  cholangiocyte proliferation (Ki67): reduced
  liver damage (H&E: portal inflammation, inflammatory infiltration, lobular necrosis): reduced
  secretin levels (serum and bile, EIA): reduced
dnTGF-βRII mice [4]; vs saline treated
  Sct, SR, CFTR and AE2 expression: reduced
  collagen content / deposition (Sirius Red), hepatic fibrosis: significantly reduced
  serum levels of ALP and γGT: reduced
  intrahepatic bile duct mass (IBDM, CK-19): significantly reduced
dnTGF-βRII mice [4]; [6]
  intrahepatic bile duct mass (IBDM, CK-19): reduced
  collagen content / deposition (Sirius Red), hepatic fibrosis: ameliorated
dnTGF-βRII mice [4]; listed as SR antagonist
  biliary senescence (p16, p18, p21, CCL2): decreased
  cholangiocyte apoptosis (TUNEL-positive cholangiocytes): increased
  liver damage (H&E: portal inflammation, inflammatory infiltration, lobular necrosis): ameliorated
dnTGF-βRII mice [5]; dnTGF-βRII 32/34 wk
  biliary senescence (p16, p18, p21, CCL2): further increased
  cholangiocyte apoptosis (TUNEL): further increased
  collagen content / deposition (Sirius Red), hepatic fibrosis: increased
dnTGF-βRII mice [5]; [7]
  Sct, SR, CFTR and AE2 expression: further decrease
  intrahepatic bile duct mass (IBDM, CK-19): further reduced
dnTGF-βRII mice [5]; dnTGF-βRII 32/34 wk, vs saline treated, listed as SR antagonist
  intrahepatic bile duct mass (IBDM, CK-19): decreased
dnTGF-βRII mice [5]; [8]
  biliary senescence (p16, p18, p21, CCL2): increased
  cholangiocyte apoptosis (TUNEL): exacerbated
  collagen content / deposition (Sirius Red), hepatic fibrosis: further increased
dnTGF-βRII mice [5]; dnTGF-βRII 34 wk
  HSC activation (SYP-9): increased
  biliary growth / cholangiocyte proliferation: further reduced
  liver damage (H&E): exacerbated
  secretin levels (serum; serum and bile): reduced
dnTGF-βRII mice [5]; dnTGF-βRII 34 wk, listed as SR antagonist
  HSC activation (SYP-9): enhanced
Mdr2−/− mice; BDL and Mdr2−/− mouse model of PSC
  hepatic fibrosis and HSC activation: reduced
Mdr2−/− mice; Mdr2−/− mice
  TGF-β1/TGF-β1 receptor axis expression: decreased
  biliary mass and HSCs activation: reduced
